Experimental data from patent publication US8563729B2, “Thienopyridone derivatives as AMP-activated protein kinase (AMPK) activators” (Merck Patent GmbH, priority 2008, dated 2013).

Target: T1, AMPK protein (recombinant α1β1γ2) (Homo sapiens, UniProt Q13131+Q9Y478)
T1 construct: made in house; host or cells: E. coli
Test: AMPK enzymatic activity (Delfia, AMARA peptide substrate)
Assay type: biochemical
Conditions: compound 30 μM vs AMP 30 μM; 125 μM ATP; ratio 90% or higher = direct activator
Procedure: The following biological test allows the determination of the efficacy of such compounds of formula (I) onto AMPK protein (recombinant α1β1γ2).
Human recombinant AMPK enzyme was expressed in E. Coli and was reactivated in vitro by LKB1 prior to enzyme activity determination.
AMPK enzyme activities were assayed by using A Delfia technology. AMPK enzyme activities were carried out in microtiter plates (50 mM Hepes buffer, pH 7.4 with 125 μM ATP respectively) in the presence of a synthetic peptide substrate (AMARAASAAALARRR, the “AMARA” peptide) and activators in serial dilutions. Reactions were initiated by the addition of AMPK (50-100 ng). Following mixing, the plates were incubated for 30 min at room temperature. Enzyme activity was assayed by using an anti-phosphoserine antibody to measure the quantity of phosphate incorporated into the AMARAA.
N°: Number of the molecule
Activity: Ratio between the % of control (basal activity) of compound of formula (I) at 30 μM and the % of control (basal activity) of AMP (natural substrate) at 30 μM.
Compounds of formula (I) in the table II are considered as direct activator of AMPK if the ratio is 90% or higher.

T1 sequence (Q13131 whole entry): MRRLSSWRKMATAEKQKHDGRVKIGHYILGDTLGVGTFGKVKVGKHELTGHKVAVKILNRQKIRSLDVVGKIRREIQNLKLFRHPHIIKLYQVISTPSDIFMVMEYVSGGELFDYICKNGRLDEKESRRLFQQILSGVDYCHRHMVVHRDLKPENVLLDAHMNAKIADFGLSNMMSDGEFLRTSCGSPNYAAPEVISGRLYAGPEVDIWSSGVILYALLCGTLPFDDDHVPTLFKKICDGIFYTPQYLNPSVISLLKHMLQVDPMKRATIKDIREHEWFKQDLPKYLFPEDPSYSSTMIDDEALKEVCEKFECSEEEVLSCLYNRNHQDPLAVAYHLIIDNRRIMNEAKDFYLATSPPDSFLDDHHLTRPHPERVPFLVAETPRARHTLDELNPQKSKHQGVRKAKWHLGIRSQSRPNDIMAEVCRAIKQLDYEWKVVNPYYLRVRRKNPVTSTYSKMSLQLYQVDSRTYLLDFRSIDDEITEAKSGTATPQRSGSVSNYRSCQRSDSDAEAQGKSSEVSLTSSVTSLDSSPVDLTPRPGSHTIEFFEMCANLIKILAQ
T1 sequence (Q9Y478 whole entry): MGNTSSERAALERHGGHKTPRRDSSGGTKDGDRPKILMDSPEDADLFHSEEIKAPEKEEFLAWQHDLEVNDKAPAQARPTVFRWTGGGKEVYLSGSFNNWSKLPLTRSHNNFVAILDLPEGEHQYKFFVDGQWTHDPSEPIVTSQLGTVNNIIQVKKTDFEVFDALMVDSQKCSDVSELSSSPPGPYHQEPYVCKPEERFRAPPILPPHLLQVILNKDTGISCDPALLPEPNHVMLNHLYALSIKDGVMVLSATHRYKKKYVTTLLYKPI
T1 sequence (Q9UGJ0 whole entry partner): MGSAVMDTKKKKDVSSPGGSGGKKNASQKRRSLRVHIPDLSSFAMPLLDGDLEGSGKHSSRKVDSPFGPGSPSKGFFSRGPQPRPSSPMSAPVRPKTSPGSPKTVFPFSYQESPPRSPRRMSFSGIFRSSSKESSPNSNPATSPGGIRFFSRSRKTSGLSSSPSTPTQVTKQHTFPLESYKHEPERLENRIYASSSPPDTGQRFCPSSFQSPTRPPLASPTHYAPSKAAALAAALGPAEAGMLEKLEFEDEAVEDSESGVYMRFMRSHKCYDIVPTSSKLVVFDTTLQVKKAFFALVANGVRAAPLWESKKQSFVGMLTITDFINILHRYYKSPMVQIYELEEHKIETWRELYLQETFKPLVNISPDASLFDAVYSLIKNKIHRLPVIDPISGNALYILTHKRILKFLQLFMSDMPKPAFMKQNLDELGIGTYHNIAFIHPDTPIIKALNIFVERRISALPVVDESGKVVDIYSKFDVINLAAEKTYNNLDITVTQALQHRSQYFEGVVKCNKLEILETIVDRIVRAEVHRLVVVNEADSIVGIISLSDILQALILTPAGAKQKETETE

activity: Ratio between the % of control (basal activity) of compound of formula (I) at 30 μM and the % of control (basal activity) of AMP at 30 μM [%]	Compound
119	O=c1[nH]c2scc(-c3ccc(Br)cc3)c2c(O)c1-c1ccccc1 [Compound 25]
109	O=c1[nH]c2scc(-c3cccc(O)c3)c2c(O)c1-c1ccccc1 [Compound 48]
103	Cc1cccc(-c2csc3[nH]c(=O)c(-c4ccccc4)c(O)c23)c1 [Compound 50]
144	O=c1[nH]c2scc(-c3ccc(F)cc3O)c2c(O)c1-c1ccccc1 [Compound 66]
131	COc1ccc(-c2csc3[nH]c(=O)c(-c4ccccc4)c(O)c23)cc1F [Compound 71]
150	O=c1[nH]c2scc(-c3ccc(O)c(F)c3)c2c(O)c1-c1ccccc1 [Compound 72]
94	COc1cc(-c2csc3[nH]c(=O)c(-c4ccccc4)c(O)c23)ccc1Br [Compound 73]
135	O=c1[nH]c2scc(-c3cc(F)ccc3O)c2c(O)c1-c1ccccc1 [Compound 75]
257	O=c1[nH]c2scc(-c3ccc(Br)cc3O)c2c(O)c1-c1ccccc1 [Compound 77]
593	COc1ccc(O)c(-c2csc3[nH]c(=O)c(-c4ccccc4)c(O)c23)c1 [Compound 79]
158	COc1cc(-c2csc3[nH]c(=O)c(-c4ccccc4)c(O)c23)ccc1C [Compound 84]
406	Cc1ccc(-c2csc3[nH]c(=O)c(-c4ccccc4)c(O)c23)cc1O [Compound 85]
287	Cc1ccc(-c2csc3[nH]c(=O)c(-c4cccc(C#N)c4)c(O)c23)c(O)c1 [Compound 87]
206	COc1cc(C)ccc1-c1c(Cl)sc2[nH]c(=O)c(-c3ccccc3)c(O)c12 [Compound 105]
115	O=c1[nH]c2sc(Cl)c(-c3c(F)cccc3F)c2c(O)c1-c1ccccc1 [Compound 106, 2-chloro-3-(2,6-diflurophenyl)-4-hydroxy-5-phenyl-6,7-dihydro-thieno[2,3-b]pyridin-6-one]
95	O=c1[nH]c2sc(Cl)c(-c3cc(Cl)c(O)cc3F)c2c(O)c1-c1ccccc1 [Compound 113]
195	O=c1[nH]c2sc(Cl)c(-c3cccc(CO)c3)c2c(O)c1-c1ccccc1 [Compound 124]
108	O=c1[nH]c2sc(Cl)c(-c3ccc(O)cc3)c2c(O)c1-c1ccc(F)cc1 [Compound 132]
113	Cc1ccc(-c2c(Cl)sc3[nH]c(=O)c(-c4ccccc4)c(O)c23)cc1 [Compound 135]
403	CNC(=O)c1cccc(-c2c(O)c3c(-c4ccccc4)c(Cl)sc3[nH]c2=O)c1 [Compound 141]
126	N=C(N)c1cccc(-c2c(O)c3c(-c4ccccc4)c(Cl)sc3[nH]c2=O)c1 [Compound 142]
90	CS(=O)(=O)c1cccc(-c2c(O)c3c(-c4ccccc4)c(Cl)sc3[nH]c2=O)c1 [Compound 145]

The remaining lines, values behind:

Compound	activity: Ratio between the % of control (basal activity) of compound of formula (I) at 30 μM and the % of control (basal activity) of AMP at 30 μM [%]
O=C(O)c1sc2[nH]c(=O)c(-c3ccccc3)c(O)c2c1-c1ccccc1 [Compound 3]	102
O=c1[nH]c2scc(-c3ccccc3)c2c(O)c1-c1ccccc1 [Compound 16]	107
O=c1[nH]c2scc(-c3ccc(Br)cc3)c2c(O)c1-c1cccnc1 [Compound 28]	109
O=c1[nH]c2scc(-c3ccc(Br)cc3)c2c(O)c1-c1ccncc1 [Compound 29]	103
COc1ccc(-c2csc3[nH]c(=O)c(-c4ccccc4)c(O)c23)cc1 [Compound 32]	147
O=c1[nH]c2scc(-c3ccc(CO)cc3)c2c(O)c1-c1ccccc1 [Compound 38]	119
COc1ccc(-c2c(O)c3c(-c4ccc(OC)cc4)csc3[nH]c2=O)cc1 [Compound 40]	109
O=c1[nH]c2scc(-c3ccc(O)cc3)c2c(O)c1-c1ccc(O)cc1 [Compound 41]	92
COc1ccc(-c2csc3[nH]c(=O)c(-c4ccc(F)cc4)c(O)c23)cc1 [Compound 42]	110
COc1ccc(-c2c(O)c3c(-c4ccc(F)cc4)csc3[nH]c2=O)cc1 [Compound 44]	98
O=c1[nH]c2scc(-c3ccc(F)cc3)c2c(O)c1-c1ccc(O)cc1 [Compound 45]	114
O=c1[nH]c2scc(-c3cccc(F)c3)c2c(O)c1-c1ccccc1 [Compound 49]	131
O=c1[nH]c2scc(-c3cccc(CO)c3)c2c(O)c1-c1ccccc1 [Compound 52]	176
O=c1[nH]c2scc(-c3ccccc3O)c2c(O)c1-c1ccccc1 [Compound 55]	146
O=c1[nH]c2scc(-c3ccccc3F)c2c(O)c1-c1ccccc1 [Compound 56]	107
O=c1[nH]c2scc(-c3ccccc3Cl)c2c(O)c1-c1ccccc1 [Compound 58]	103
COc1ccc(-c2csc3[nH]c(=O)c(-c4ccccc4)c(O)c23)c(OC)c1 [Compound 60]	100
O=c1[nH]c2scc(-c3ccc(O)cc3O)c2c(O)c1-c1ccccc1 [Compound 61]	146
O=c1[nH]c2scc(-c3ccc(O)cc3F)c2c(O)c1-c1ccccc1 [Compound 62]	101
O=c1[nH]c2scc(-c3ccc(F)cc3F)c2c(O)c1-c1ccccc1 [Compound 64]	109
O=c1[nH]c2scc(-c3cc(O)cc(O)c3)c2c(O)c1-c1ccccc1 [Compound 68]	96
O=c1[nH]c2scc(-c3ccc(Br)c(O)c3)c2c(O)c1-c1ccccc1 [Compound 74]	112
O=c1[nH]c2scc(-c3c(F)cccc3F)c2c(O)c1-c1ccccc1 [Compound 78]	160
COc1ccc(-c2csc3[nH]c(=O)c(-c4ccccc4)c(O)c23)c(O)c1 [Compound 81]	223
COc1ccc(-c2c(Cl)sc3[nH]c(=O)c(-c4ccccc4)c(O)c23)cc1F [Compound 110]	121
O=c1[nH]c2sc(Cl)c(-c3ccc(F)cc3F)c2c(O)c1-c1ccccc1 [Compound 114]	115
O=c1[nH]c2sc(Cl)c(-c3ccc(O)cc3F)c2c(O)c1-c1ccccc1 [Compound 116]	120
O=C(O)c1cccc(-c2c(O)c3c(-c4ccc(F)cc4)c(Cl)sc3[nH]c2=O)c1 [Compound 130]	117
CCCCc1ccc(-c2c(Cl)sc3[nH]c(=O)c(-c4ccccc4)c(O)c23)cc1 [Compound 134]	93
